Measurements taken from patent US6372261B1, “Process for producing Guilu ErXiangao” (Pharmaceutical Industry Technology and Development Center, priority 2000, dated 2002).

System: leukopenia caused by 5-FU
Assay: hemopoietic effect in animal experimentation: leukopenia caused by 5-FU in rats, blood cell counts
Assay type: in vivo
[1] = male rats, 5-FU 100 mg/kg orally twice on 8th day, blood after 14 days, mean ± SEM
[2] = rats, 5-FU model, values of Table 1
[3] = rats, p<0.01 vs control (5-FU), p<0.05 vs trial 1

## O=c1[nH]cc(F)c(=O)[nH]1 [Trial 5-FU, 5-fluorouracil]
[1]
  GrC. (granulocyte): 0.66 ± 0.11 × 10^3/μl
  LymC. (lymphocyte): 2.21 ± 0.15 × 10^3/μl
  MonoC. (monocyte): 0.84 ± 0.12 × 10^3/μl
  Platelet: 983.5 ± 52.0 × 10^3/μl
  RBC (red blood cell): 9.58 ± 0.14 × 10^6/μl
  WBC (white blood cell): 3.70 ± 0.23 × 10^3/μl
[2]
  granulocyte (mean): 0.66 ± 0.11 10^3/µL
  lymphocyte (mean): 2.21 ± 0.15 10^3/µL
  monocyte (mean): 0.84 ± 0.12 10^3/µL
  white blood cells (mean): 3.7 ± 0.23 10^3/µL
rats, p<0.01 vs control (5-FU) or vs trial 1
  effect on granulocytes (in words): inhibited
[3]
  effect on lymphocytes (in words): inhibited
  effect on monocytes (in words): inhibited
rats, unpaired student t test, p<0.01 vs control (5-FU) or vs trial 1
  effect on white blood cells (in words): inhibited
